Earlier results as cited in patent US20160235072A1, “ANTIMICROBIAL POLYMER CONCENTRATES AND COMPOUNDS” (POLYONE CORPORATION, priority 2013, published 2016).

Tested on: pathogens from the Streptococcus and Staphylococcus genera

Zinc pyrithione
effectiveness against pathogens: effective against many pathogens
